According to PMC5421785, “Citrullination only infrequently impacts peptide binding to HLA class II MHC” (PLoS ONE, 2017):
Read-outs that look alike come from different tables or passages of the source. Square brackets hold non-standard residues; d marks the D form. Peptide text beside a SMILES is read from it. Cit = NC(=O)NCCC[C@H](N)C(=O)O

How the values were obtained:
HLA-DRB1*04:01 = biological target: T1, HLA-DRB1*04:01 (Homo sapiens, UniProt P01903+P01911, A100K/A169T/F76Y/I96L/K127E/L162R/M171V/N62H/P40V/Q125Y/R42H/S133A/S149N/S66Y/V115G/V209L/W38E); test: HLA class II peptide binding, inhibition of radiolabeled peptide binding to purified MHC; details: for DRB1*04:01 binding capacity, WT/cit ratio: ratio of WT IC50 to Cit IC50
T1 construct: EBV transformed homozygous cell lines were used as sources of MHC molecules; endogenous in cells; host or cells: EBV transformed homozygous cell lines

HLA-DRB1*01:01 = biological target: T2, HLA-DRB1*01:01 (Homo sapiens, UniProt P01903+P01911, A100R/D57E/F55L/F60I/F76Y/I96L/L162R/M171V/P40L/Q125E/R42F/V115G/Y59C); test: as above; details: for DRB1*01:01 binding capacity, WT/cit ratio: ratio of WT IC50 to Cit IC50
T2 construct: EBV transformed homozygous cell lines were used as sources of MHC molecules; endogenous in cells; host or cells: EBV transformed homozygous cell lines

[1] = citrullinated 15-mer (X), purified MHC, inhibition of radiolabeled peptide binding, dash = IC50 >40,000 nM, read-out: DRB1*04:01 binding capacity, Cit peptide (IC50 nM)
[2] = citrullinated 15-mer (X), purified MHC, inhibition of radiolabeled peptide binding, dash = IC50 >40,000 nM, read-out: DRB1*01:01 binding capacity, Cit peptide (IC50 nM)
[3] = citrullinated 15-mer peptide (X = citrulline), purified HLA-DRB1*04:01, read-out: DRB1*04:01 binding capacity, Cit peptide (IC50 nM)
[4] = citrullinated 15-mer peptide (X = citrulline), purified HLA-DRB1*01:01, read-out: DRB1*01:01 binding capacity, Cit peptide (IC50 nM)
[5] = >1 = citrullination increases binding

Structure (SMILES) | IC50 (HLA-DRB1*04:01; [1]) [nM] | IC50 (HLA-DRB1*01:01; [2]) [nM] | further results
CSCC[C@H](NC(=O)[C@H](CCC(=O)O)NC(=O)[C@H](CCC(=O)O)NC(=O)[C@H](CCC(=O)O)NC(=O)[C@H](Cc1ccc(O)cc1)NC(=O)[C@H](CC(C)C)NC(=O)[C@H](CC(=O)O)NC(=O)CNC(=O)[C@H](CC(C)C)NC(=O)[C@H](CCCNC(N)=O)NC(=O)[C@H](CO)NC(=O)[C@H](CCCCN)NC(=O)CNC(=O)[C@@H](N)CCC(N)=O)C(=O)N[C@@H](CCCNC(=N)N)C(=O)O [QGKSXLGDLYEEEMR] (H-QGKS[Cit]LGDLYEEEMR-OH; N-terminus and C-terminus assumed) | > 40000 | > 40000 | DRB1*04:01 binding capacity, WT/cit ratio (HLA-DRB1*04:01): 1.0; DRB1*01:01 binding capacity, WT/cit ratio (HLA-DRB1*01:01): 0.7
CC(C)C[C@H](NC(=O)CNC(=O)[C@H](CCCNC(N)=O)NC(=O)[C@@H]1CCCN1C(=O)CNC(=O)[C@@H](N)CCC(N)=O)C(=O)N1CCC[C@H]1C(=O)NCC(=O)N[C@H](C(=O)N1CCC[C@H]1C(=O)NCC(=O)N[C@H](C(=O)N[C@@H](CC(=O)O)C(=O)NCC(=O)N1CCC[C@H]1C(=O)O)[C@@H](C)O)[C@@H](C)O [QGPXGLPGTPGTDGP] (H-QGP[Cit]GLPGTPGTDGP-OH) |  |  | IC50 (HLA-DRB1*04:01; [3]): > 40000 nM; IC50 (HLA-DRB1*01:01; [4]): 21000 nM
CC(C)C[C@H](NC(=O)[C@@H](NC(=O)[C@H](CC(N)=O)NC(=O)[C@H](CCC(=O)O)NC(=O)[C@H](C)NC(=O)[C@H](CCC(=O)O)NC(=O)[C@H](CCC(=O)O)NC(=O)[C@@H](N)CCCNC(=N)N)[C@@H](C)O)C(=O)N[C@@H](CCC(N)=O)C(=O)N[C@@H](CO)C(=O)N[C@@H](Cc1ccccc1)C(=O)N[C@@H](CCCNC(N)=O)C(=O)N[C@@H](CCC(N)=O)C(=O)N[C@@H](CC(=O)O)C(=O)N[C@H](C(=O)O)C(C)C [REEAENTLQSFXQDV] (H-REEAENTLQSF[Cit]QDV-OH) | 11600 | 33300 | 
C[C@H](NC(=O)CNC(=O)[C@@H]1CCCN1C(=O)[C@H](CO)NC(=O)CNC(=O)[C@H](CCC(=O)O)NC(=O)[C@@H](N)CCCNC(=N)N)C(=O)N[C@@H](CC(=O)O)C(=O)NCC(=O)N1CCC[C@H]1C(=O)N1CCC[C@H]1C(=O)NCC(=O)N[C@@H](CCCNC(N)=O)C(=O)N[C@@H](CC(=O)O)C(=O)NCC(=O)O [REGSPGADGPPGXDG] (H-REGSPGADGPPG[Cit]DG-OH; N-terminus and C-terminus assumed) |  |  | IC50 (HLA-DRB1*04:01; [3]): > 40000 nM; DRB1*04:01 binding capacity, WT/cit ratio (HLA-DRB1*04:01; [5]): 1.0; IC50 (HLA-DRB1*01:01; [4]): > 40000 nM; DRB1*01:01 binding capacity, WT/cit ratio (HLA-DRB1*01:01; [5]): 1.0
CSCC[C@H](NC(=O)[C@H](CCC(=O)O)NC(=O)[C@H](CCC(=O)O)NC(=O)[C@H](CCC(N)=O)NC(=O)[C@H](CC(C)C)NC(=O)[C@H](CCCCN)NC(=O)[C@H](CCC(=O)O)NC(=O)[C@@H](N)CCCNC(=N)N)C(=O)N[C@@H](CC(C)C)C(=O)N[C@@H](CCC(N)=O)C(=O)N[C@@H](CCCNC(N)=O)C(=O)N[C@@H](CCC(=O)O)C(=O)N[C@@H](CCC(=O)O)C(=O)N[C@@H](C)C(=O)N[C@@H](CCC(=O)O)C(=O)O [REKLQEEMLQXEEAE] (H-REKLQEEMLQ[Cit]EEAE-OH) | > 40000 | 13200 | 
CC[C@H](C)[C@H](NC(=O)[C@H](CCCNC(N)=O)NC(=O)[C@H](CO)NC(=O)[C@H](CCC(=O)O)NC(=O)[C@H](CCC(=O)O)NC(=O)CNC(=O)[C@H](CCC(=O)O)NC(=O)[C@H](CC(C)C)NC(=O)[C@H](CC(C)C)NC(=O)[C@H](CCCCN)NC(=O)[C@@H](N)CCCNC(=N)N)C(=O)N[C@@H](CO)C(=O)N[C@@H](CC(C)C)C(=O)N1CCC[C@H]1C(=O)N[C@@H](CC(C)C)C(=O)O [RKLLEGEESXISLPL] |  |  | IC50 (HLA-DRB1*04:01; [3]): 1200 nM; IC50 (HLA-DRB1*01:01; [4]): 1320 nM
CC(C)C[C@H](NC(=O)[C@H](C)NC(=O)[C@H](CO)NC(=O)CNC(=O)[C@H](CC(C)C)NC(=O)[C@H](CO)NC(=O)[C@H](Cc1ccc(O)cc1)NC(=O)[C@@H](NC(=O)[C@@H](N)CCCNC(=N)N)[C@@H](C)O)C(=O)N[C@@H](CCCNC(=N)N)C(=O)N1CCC[C@H]1C(=O)N[C@@H](CO)C(=O)N[C@H](C(=O)N[C@@H](CO)C(=O)N[C@@H](CCCNC(N)=O)C(=O)O)[C@@H](C)O [RTYSLGSALRPSTSX] (H-RTYSLGSALRPSTS[Cit]-OH) | 1090 | 21 | 
CC(C)C[C@H](NC(=O)[C@H](C)NC(=O)[C@H](CO)NC(=O)CNC(=O)[C@H](CC(C)C)NC(=O)[C@H](CO)NC(=O)[C@H](Cc1ccc(O)cc1)NC(=O)[C@@H](NC(=O)[C@@H](N)CCCNC(=N)N)[C@@H](C)O)C(=O)N[C@@H](CCCNC(N)=O)C(=O)N1CCC[C@H]1C(=O)N[C@@H](CO)C(=O)N[C@H](C(=O)N[C@@H](CO)C(=O)N[C@@H](CCCNC(=N)N)C(=O)O)[C@@H](C)O [RTYSLGSALXPSTSR] (H-RTYSLGSAL[Cit]PSTSR-OH) | 1100 | 14 | 
CC(C)C[C@H](NC(=O)CNC(=O)[C@H](C)NC(=O)[C@H](Cc1ccccc1)NC(=O)[C@H](C)NC(=O)[C@@H](N)CO)C(=O)NCC(=O)N1CCC[C@H]1C(=O)N[C@@H](CCCNC(N)=O)C(=O)N[C@@H](CCC(=O)O)C(=O)N[C@@H](CCCCN)C(=O)NCC(=O)N1CCC[C@H]1C(=O)N[C@@H](CC(=O)O)C(=O)N1CCC[C@H]1C(=O)O [SAFAGLGPXEKGPDP] (H-SAFAGLGP[Cit]EKGPDP-OH) |  |  | IC50 (HLA-DRB1*04:01; [3]): 6400 nM; IC50 (HLA-DRB1*01:01; [4]): 35 nM
CC(C)C[C@H](NC(=O)[C@H](CC(C)C)NC(=O)[C@H](CCCNC(N)=O)NC(=O)[C@@H](NC(=O)CNC(=O)[C@@H]1CCCN1C(=O)[C@@H](NC(=O)[C@H](CO)NC(=O)[C@H](CO)NC(=O)[C@H](CCCNC(=N)N)NC(=O)[C@H](CC(C)C)NC(=O)[C@H](CCCNC(=N)N)NC(=O)[C@@H](NC(=O)[C@H](C)NC(=O)[C@@H](N)CO)C(C)C)C(C)C)C(C)C)C(=O)O [SAVRLRSSVPGVXLL] (H-SAVRLRSSVPGV[Cit]LL-OH) | 641 | 9.7 | 
CC(C)C[C@H](NC(=O)[C@H](CC(C)C)NC(=O)[C@H](CCCNC(=N)N)NC(=O)[C@@H](NC(=O)CNC(=O)[C@@H]1CCCN1C(=O)[C@@H](NC(=O)[C@H](CO)NC(=O)[C@H](CO)NC(=O)[C@H](CCCNC(N)=O)NC(=O)[C@H](CC(C)C)NC(=O)[C@H](CCCNC(=N)N)NC(=O)[C@@H](NC(=O)[C@H](C)NC(=O)[C@@H](N)CO)C(C)C)C(C)C)C(C)C)C(=O)O [SAVRLXSSVPGVRLL] (H-SAVRL[Cit]SSVPGVRLL-OH) | 11 | 0.7 | 
CC(C)C[C@H](NC(=O)[C@H](CC(C)C)NC(=O)[C@H](CCCNC(=N)N)NC(=O)[C@@H](NC(=O)CNC(=O)[C@@H]1CCCN1C(=O)[C@@H](NC(=O)[C@H](CO)NC(=O)[C@H](CO)NC(=O)[C@H](CCCNC(=N)N)NC(=O)[C@H](CC(C)C)NC(=O)[C@H](CCCNC(N)=O)NC(=O)[C@@H](NC(=O)[C@H](C)NC(=O)[C@@H](N)CO)C(C)C)C(C)C)C(C)C)C(=O)O [SAVXLRSSVPGVRLL] (H-SAV[Cit]LRSSVPGVRLL-OH) | 1050 | 19 | 
CC[C@H](C)[C@H](NC(=O)[C@H](CCC(N)=O)NC(=O)[C@H](CC(N)=O)NC(=O)[C@H](CC(N)=O)NC(=O)[C@H](CC(C)C)NC(=O)[C@@H](N)CO)C(=O)N[C@@H](CCC(=O)O)C(=O)N[C@@H](CO)C(=O)N[C@H](C(=O)N[C@@H](CCCNC(N)=O)C(=O)N[C@@H](CO)C(=O)N1CCC[C@H]1C(=O)N[C@@H](CCC(=O)O)C(=O)NCC(=O)N[C@@H](CO)C(=O)O)[C@@H](C)CC [SLNNQIESIXSPEGS] (H-SLNNQIESI[Cit]SPEGS-OH) |  |  | IC50 (HLA-DRB1*04:01; citrullinated peptide as listed (X at Cit position), read-out: DRB1*04:01 binding capacity Cit peptide (IC50 nM)): 18 nM; IC50 (HLA-DRB1*01:01; citrullinated peptide as listed (X at Cit position), read-out: DRB1*01:01 binding capacity Cit peptide (IC50 nM)): 6.5 nM

Second part, led by results:

IC50 (HLA-DRB1*04:01; [1]) [nM] | IC50 (HLA-DRB1*01:01; [2]) [nM] | Structure (SMILES) | further results
8950 | 1310 | CC(C)C[C@H](NC(=O)[C@H](CC(C)C)NC(=O)[C@H](CCCNC(N)=O)NC(=O)[C@@H](NC(=O)CNC(=O)[C@@H]1CCCN1C(=O)[C@@H](NC(=O)[C@H](CO)NC(=O)[C@H](CO)NC(=O)[C@@H](N)CCCNC(=N)N)C(C)C)C(C)C)C(=O)N[C@@H](CCC(N)=O)C(=O)N[C@@H](CC(=O)O)C(=O)N[C@@H](CO)C(=O)N[C@H](C(=O)N[C@@H](CC(=O)O)C(=O)O)C(C)C [RSSVPGVXLLQDSVD] (H-RSSVPGV[Cit]LLQDSVD-OH) | 
29700 | 5590 | CC(C)C[C@H](NC(=O)[C@H](C)NC(=O)[C@H](C)NC(=O)[C@@H](NC(=O)[C@H](CC(C)C)NC(=O)[C@H](CC(=O)O)NC(=O)[C@@H]1CCCN1C(=O)[C@H](CCCCN)NC(=O)[C@@H](N)CO)[C@@H](C)O)C(=O)N[C@@H](CCCNC(=N)N)C(=O)N[C@@H](CC(=O)O)C(=O)N[C@H](C(=O)N[C@@H](CCCNC(N)=O)C(=O)N[C@@H](CCC(N)=O)C(=O)N[C@@H](CCC(N)=O)C(=O)O)C(C)C [SKPDLTAALRDVXQQ] (H-SKPDLTAALRDV[Cit]QQ-OH) | 
30300 | 1370 | CC(C)C[C@H](NC(=O)[C@H](C)NC(=O)[C@H](C)NC(=O)[C@@H](NC(=O)[C@H](CC(C)C)NC(=O)[C@H](CC(=O)O)NC(=O)[C@@H]1CCCN1C(=O)[C@H](CCCCN)NC(=O)[C@@H](N)CO)[C@@H](C)O)C(=O)N[C@@H](CCCNC(N)=O)C(=O)N[C@@H](CC(=O)O)C(=O)N[C@H](C(=O)N[C@@H](CCCNC(=N)N)C(=O)N[C@@H](CCC(N)=O)C(=O)N[C@@H](CCC(N)=O)C(=O)O)C(C)C [SKPDLTAALXDVRQQ] (H-SKPDLTAAL[Cit]DVRQQ-OH) | 
